Data reported in patent US20060040122A1, “Antimicrobial drywall” (Verichem, Inc., priority 2004, published 2006).
Counter-ions that a name gives are not always drawn.

Columns and labels:
[1] = test system: Aureobasidium pullulans ATCC 9348, Aspergillus niger ATCC 6275, Penicillium sp. ATCC 9849; assay: ASTM Test Method D-3273 00, resistance to surface mold fungi and mildew, in adhesives; conditions: similar tests, same organisms; in Titebond Solvent Free Fast Grab FRP Adhesive and Titebond Solvent Free Subfloor Adhesive
Text: In addition to experiments as described above, tests were made to compare combinations of DGH (dodecyl guanidine hydrochloride) and OPP against microorganisms known to generate what is commonly known as mildew, when used in caulking and/or adhesive materials used in bathtubs, showers and the like. ASTM (American Society for Testing Materials) Test Method D-3273 00, dealing with resistance to surface mold fungi and mildew was used. Generally, this is an accelerated test calling for a test chamber held at a relative humidity of 95 to 98% and a temperature of 32.5±1° C. (90±2° F.).
Five commercial adhesive compositions known to be susceptible to mildew growth were tested using the microorgainsms Aureobasidium pullulans ATCC 9348, Aspergillus niger ATCC 6275, Penicillium sp. ATCC 9849.
Following this test, a composition comprising 10 g of OPP and 30 g of dodecyl guanidine hydrochloride (DGH) was incorporated into samples of Titebond™ Professional Tub Surround Adhesive at concentrations of 150, 250, 500, 750, and 1000 ppm and the adhesive was tested in the same manner as in Table 2. At 28 days, all of the DGH/OPP compositions were rated at 10.

[2] = test system: Wild strain - Alternaria sp.; assay: Minimum Inhibitory Concentration synergy test on fungi (Kull et al procedure); type: cell-based
Text: (§1) The procedure followed is adapted from and follows very closely, the procedure described in the Kull et al article. The concentrations listed in Table 1 are the Minimum Inhibitory Concentrations.
(§2) In Table 3, synergism test results are summarized for a 1:26 weight ratio of OPP:DGH against three molds, using the same test system as for Table 1
(§3) Synergism has also been shown for combinations of DGH and NaMetam (sodium methyldithiocarbamate). The Table 5 results were obtained in a manner similar to those of Table 1: […]

Penicillium pinophillum = assay: as above; type: cell-based
Text: as §1, §2, §3

Mixed inoculum = assay: as above; type: cell-based
Text: as §1, §2, §3

Aspergillus niger = assay: as above; type: cell-based
Text: as §1, §2, §3

[3] = test system: artificial bacterial consortium containing approximately equal numbers of six bacterial strains; assay: Synergism dose protocol: growth inhibition of a bacterial consortium in synthetic white water (O.D. 650 nm); type: cell-based; conditions: end point 50% inhibition of bacterial growth; pH 5.5; SI less than 1 = synergism
Procedure: O-phenylphenol was tested in combination with DGH. The synergism of the blends was determined using a dose protocol. The combinations were evaluated in synthetic white water with pH value of 5.5. The materials were tested against an artificial bacterial consortium containing approximately equal numbers of six bacterial strains. Although the test strains are representative of organisms present in paper mill systems, the effect is not limited to these bacteria. Two of the strains were Kiebsiella pneumoia (ATCC 13883) and Pseudomonas aeruginosa (ATCC 15442). […] Optical density (O>D>) readings at 650 nm were taken initially (t0) and after 4 hours (t4) of incubation. […]
The inhibition values can be plotted versus dosage for each active and the particular blend. […] In the examples (tables) below, the 50 values are expressed as parts per million (ppm) of active material.
The synergism index (SI) was calculated by the equation below, which was proposed by F. C. […]
QA=quantity of compound A in mixture, producing the end point
Qa=quantity of compound A1 acting alone, producing the end point
QB=quantity of compound B in mixture, producing the end point
Qb=quantity of compound B1 acting alone, producing the end point If SI is less than 1, synergism exists; if SI is greater than 1, antagonism exists; if SI is equal to 1, an additive effect exists.

[4] = Table 1, Minimum Inhibitory Concentration, Wild strain - Alternaria sp.
[5] = Table 3, Wild strain - Atlernaria sp.
[6] = Table 1, Minimum Inhibitory Concentration, Penicillium pinophillum
[7] = Table 3, Penicillum pinophillum
[8] = Table 1, Minimum Inhibitory Concentration, Mixed inoculum
[9] = Table 1, Minimum Inhibitory Concentration
[10] = Table 5, Wild Strain - Alternaria sp.
[11] = Table 5, Penicillum pinophillum

In the case of dodecyl guanidine acetate [DGA], the mildew inhibition [1] is reported as “effective mildew inhibitors”.

For `Oc1ccccc1-c1ccccc1` [OPP, o-phenylphenol], the “Concentration of OPP alone” value [2, 4] was 15.6, the “OPP conc (ppm) alone” value [2, 5] was 15.6 ppm and the “Concentration of OPP alone” value (Penicillium pinophillum; [6]) was 15.6. For the same molecule, the “OPP conc (ppm) alone” value (Penicillium pinophillum; [7]) was 15.6 ppm, the “Concentration of OPP alone” value (Mixed inoculum; [8]) was 15.6 and the “OPP conc (ppm) alone” value (Mixed inoculum; Table 3, Mixed inoculum) was 15.6 ppm. The “Concentration of OPP alone” value (Aspergillus niger; [9]) was 15.6 and the “OPP conc (ppm) alone” value (Aspergillus niger; Table 3) was 15.6 ppm.

For `CNC(=S)[S-].[Na+]` [NaMetam, sodium methyldithiocarbamate], the “Conc of NaMetam alone” value [2, 10] was 125, the “Conc of NaMetam alone” value (Penicillium pinophillum; [11]) was 31.2 and the “Conc of NaMetam alone” value (Mixed inoculum; Table 5, Mixed Inoculum) was 250. For the same molecule, the “Conc of NaMetam alone” value (Aspergillus niger; Table 5) was 31.2.

In the case of `[Na+].[O-]c1ccccc1-c1ccccc1` [NaOPP, sodium orthophenylphenate], the “Synergy Index” value [3] is reported as 1.00.

`CCCCCCCCCCCCNC(=N)N` [DGH, Dodecyl guanidine hydrochloride] was tested, and the “Concentration of DGH alone” value [2, 4] was 125, the “DGH conc (ppm) alone” value [2, 5] was 125 ppm and the “Conc. Of DGH alone” value [2, 10] was 62.5. For the same molecule, the “Concentration of DGH alone” value (Penicillium pinophillum; [6]) was 62.5, the “DGH conc (ppm) alone” value (Penicillium pinophillum; [7]) was 62.5 ppm and the “Conc. Of DGH alone” value (Penicillium pinophillum; [11]) was 62.5. The “Concentration of DGH alone” value (Mixed inoculum; [8]) was 125, the “DGH conc (ppm) alone” value (Mixed inoculum; Table 3, Mixed inoculum) was 125 ppm and the “Conc. Of DGH alone” value (Mixed inoculum; Table 5, Mixed Inoculum) was 62.5. For the same molecule, the “Concentration of DGH alone” value (Aspergillus niger; [9]) was 62.5, the “DGH conc (ppm) alone” value (Aspergillus niger; Table 3) was 62.5 ppm and the “Conc. Of DGH alone” value (Aspergillus niger; Table 5) was 62.5. For the same molecule, the “Synergy Index” value [3] was 1.00.
